Measured values reported in patent US20140308733A1, “METHOD FOR INDUCING GERMINATION OF SPORE FORMING BACTERIUM” (CALPIS CO., LTD., priority 2011, published 2014).

Key:
Assay type in all cases: cell-based
[1] = system: Geobacillus stearothermophilus (NBRC 13737); test: Germination induction, change of turbidity (630 nm) of spore suspension; details: 300 ppm; for turbidity (630 nm): 37° C., 150 rpm
Method: (§1) It is possible to determine whether spores have germinated, after measuring an OD 630 value (turbidity at 630 nm) of the liquid culture, based on decrease in the value (Literature: Microbiology, (1950), 4, 3, 330-338). Briefly, bacterial cells after culturing are washed with distilled water and diluted with distilled water to OD 630=1.0, which is then mixed with an equal volume of a germination induction solution, and the turbidity at 630 nm is measured by a UV spectrophotometer at room temperature.
(§2) TS culture media (Difco, Trypticase Soy Broth) were inoculated respectively with 11 strains listed in Table 1 and cultured at 50° C. with respect to Geobacillus stearothermophilus NBRC13737 and Aeribacillus pallidus TK6004 (FERM BP-08597), and at 37° C. with respect to the other 9 strains, until respective colonies were established. Then with respect to each of 11 strains, a loop full of a single colony was scratched by a platinum loop and suspended in 500 μL of sterilized water. In 1000 g of water was dissolved 8.0 g of a nutrient agar culture medium (Difco, Nutrient Broth), followed by high pressure steam sterilization (121° C., 15 min) to prepare a plate medium. The nutrient agar culture medium was smeared with each 100 μL of the suspension and cultured at 37° C. for 3 days.
(§3) Then, bacterial cells were suspended using a platinum loop in 500 μL of sterilized water, and the bacterial suspension was subjected to a heat shock at 65° C. for 35 min. Each 100 μL of the heat-shocked bacterial suspension and a not-heat-shocked bacterial suspension were smeared on the TS culture media respectively and cultured at 50° C. or 37° C. for 1 day. As the results of the cultures, colony formation was confirmed also with respect to the heat-shocked bacterial suspensions, to confirm that spores were formed for all of 11 strains. Further, since the bacteria were not stained by Gram staining, it was reconfirmed that spores were formed.
(§4) After confirming the spore formation, the bacterial cells were collected by a bacteria spreader, suspended in 10 mL of sterilized distilled water, and then centrifuged (8340×g, 4° C., 15 min). The supernatant was removed and thereafter the bacterial cells were washed twice with 10 mL of sterilized water. After washing, the bacterial cells were suspended in 5 mL of sterilized water, and the suspension was filtrated by sterilized Kimwipes. The filtrate was centrifuged (8340×g, 4° C., 15 min) to remove the supernatant, and the rest was adjusted to the turbidity (at 630 nm) of 1.0 with sterilized water.
(§5) After dissolving with stirring using a stirring rod with a propeller, filtration sterilization (0.45 μm filter) was conducted to prepare each 600 ppm-solution.
(§6) Five hundred (500) μL of each solution and 500 μL of each bacterial spore suspension were mixed. […] Defining the time point of mixing as the reaction initiation (0 min), and continuing shaking (150 rpm) at 37° C., the turbidity (630 nm) was measured at 10, 20, 30, 40, 50, 60, 90, 120, and 180 min after the reaction initiation.
(§7) Since the turbidity at 630 nm decreases by germination of spores, it has been known that the turbidity at 630 nm can be used to determine the germination rate.

[2] = system: Bacillus licheniformis (NBRC 12195); test: as above; details: 300 ppm; for turbidity (630 nm): 37° C., 150 rpm
Method: as §1, §2, §3, §4, §5, §6, §7

[3] = system: Bacillus subtilis C-3102 (FERM BP-1096); test: Influence of the concentration of germination inducer on turbidity change (Example 2); details: for turbidity (630 nm): 37° C., 150 rpm
Method: Next, 500 μL aliquots of bacterial suspension of Bacillus subtilis C-3102 (FERM BP-1096) used in Example 1 were mixed with 500 μL of ferulic acid, or vanillic acid solutions described above, and the mixtures were adjusted to ferulic acid (10 to 600 ppm), or vanillic acid (10 to 1800 ppm) concentrations set forth in Table 2. The concentrations of ferulic acid at the reaction initiation were 10, 100, 300, and 600 ppm, and the concentrations of vanillic acid at the reaction initiation were 10, 100, 300, 600, 1200, and 1800 ppm.
As same as Example 1, defining the time point of mixing the bacterial suspension with the solution of ferulic acid, or vanillic acid as the reaction initiation (0 min), and continuing shaking (150 rpm) at 37° C., the absorbance (630 nm) was measured at 10, 20, 30, 40, 50, 60, 90, 120, and 180 min after the reaction initiation.

[4] = 0 min after reaction initiation
[5] = 10 min after reaction initiation
[6] = 20 min after reaction initiation
[7] = 30 min after reaction initiation
[8] = 40 min after reaction initiation
[9] = 50 min after reaction initiation
[10] = 60 min after reaction initiation
[11] = 90 min after reaction initiation
[12] = 120 min after reaction initiation
[13] = 180 min after reaction initiation

COc1cc(/C=C/C(=O)O)ccc1O [Ferulic acid, ferulic acid]
turbidity (630 nm) [1, 4]: 0.560 | turbidity (630 nm) [1, 5]: 0.551 | turbidity (630 nm) [1, 6]: 0.537 | turbidity (630 nm) [1, 7]: 0.541 | turbidity (630 nm) [1, 8]: 0.489 | turbidity (630 nm) [1, 9]: 0.473 | turbidity (630 nm) [1, 10]: 0.459 | turbidity (630 nm) [1, 11]: 0.397 | turbidity (630 nm) [1, 12]: 0.326 | turbidity (630 nm) [1, 13]: 0.202 | germination confirmed by turbidity decrease ([1]; up to 180 min): the turbidity decreased | turbidity (630 nm) [2, 4]: 0.541 | turbidity (630 nm) [2, 5]: 0.521 | turbidity (630 nm) [2, 6]: 0.502 | turbidity (630 nm) [2, 7]: 0.480 | turbidity (630 nm) [2, 8]: 0.449 | turbidity (630 nm) [2, 9]: 0.430 | turbidity (630 nm) [2, 10]: 0.392 | turbidity (630 nm) [2, 11]: 0.368 | turbidity (630 nm) [2, 12]: 0.324 | turbidity (630 nm) [2, 13]: 0.290 | germination confirmed by turbidity decrease ([2]; up to 180 min): the turbidity decreased | turbidity (630 nm) ([3]; ferulic acid 10 ppm, 0 min after reaction initiation): 0.584 | turbidity (630 nm) ([3]; ferulic acid 10 ppm, 10 min after reaction initiation): 0.563 | turbidity (630 nm) ([3]; ferulic acid 10 ppm, 20 min after reaction initiation): 0.553 | turbidity (630 nm) ([3]; ferulic acid 10 ppm, 30 min after reaction initiation): 0.544 | turbidity (630 nm) ([3]; ferulic acid 10 ppm, 40 min after reaction initiation): 0.533 | turbidity (630 nm) ([3]; ferulic acid 10 ppm, 50 min after reaction initiation): 0.519 | turbidity (630 nm) ([3]; ferulic acid 10 ppm, 60 min after reaction initiation): 0.507 | turbidity (630 nm) ([3]; ferulic acid 10 ppm, 90 min after reaction initiation): 0.488 | turbidity (630 nm) ([3]; ferulic acid 10 ppm, 120 min after reaction initiation): 0.447 | turbidity (630 nm) ([3]; ferulic acid 10 ppm, 180 min after reaction initiation): 0.353 | turbidity (630 nm) ([3]; ferulic acid 100 ppm, 0 min after reaction initiation): 0.583 | turbidity (630 nm) ([3]; ferulic acid 100 ppm, 10 min after reaction initiation): 0.565 | turbidity (630 nm) ([3]; ferulic acid 100 ppm, 20 min after reaction initiation): 0.556 | turbidity (630 nm) ([3]; ferulic acid 100 ppm, 30 min after reaction initiation): 0.53 | turbidity (630 nm) ([3]; ferulic acid 100 ppm, 40 min after reaction initiation): 0.52 | turbidity (630 nm) ([3]; ferulic acid 100 ppm, 50 min after reaction initiation): 0.500 | turbidity (630 nm) ([3]; ferulic acid 100 ppm, 60 min after reaction initiation): 0.484 | turbidity (630 nm) ([3]; ferulic acid 100 ppm, 90 min after reaction initiation): 0.448 | turbidity (630 nm) ([3]; ferulic acid 100 ppm, 120 min after reaction initiation): 0.383 | turbidity (630 nm) ([3]; ferulic acid 100 ppm, 180 min after reaction initiation): 0.247 | turbidity (630 nm) ([3]; ferulic acid 300 ppm, 0 min after reaction initiation): 0.579 | turbidity (630 nm) ([3]; ferulic acid 300 ppm, 10 min after reaction initiation): 0.56 | turbidity (630 nm) ([3]; ferulic acid 300 ppm, 20 min after reaction initiation): 0.547 | turbidity (630 nm) ([3]; ferulic acid 300 ppm, 30 min after reaction initiation): 0.530 | turbidity (630 nm) ([3]; ferulic acid 300 ppm, 40 min after reaction initiation): 0.520 | turbidity (630 nm) ([3]; ferulic acid 300 ppm, 50 min after reaction initiation): 0.499 | turbidity (630 nm) ([3]; ferulic acid 300 ppm, 60 min after reaction initiation): 0.466 | turbidity (630 nm) ([3]; ferulic acid 300 ppm, 90 min after reaction initiation): 0.422 | turbidity (630 nm) ([3]; ferulic acid 300 ppm, 120 min after reaction initiation): 0.354 | turbidity (630 nm) ([3]; ferulic acid 300 ppm, 180 min after reaction initiation): 0.22 | turbidity (630 nm) ([3]; ferulic acid 600 ppm, 0 min after reaction initiation): 0.586 | turbidity (630 nm) ([3]; ferulic acid 600 ppm, 10 min after reaction initiation): 0.552 | turbidity (630 nm) ([3]; ferulic acid 600 ppm, 20 min after reaction initiation): 0.545 | turbidity (630 nm) ([3]; ferulic acid 600 ppm, 30 min after reaction initiation): 0.526 | turbidity (630 nm) ([3]; ferulic acid 600 ppm, 40 min after reaction initiation): 0.515 | turbidity (630 nm) ([3]; ferulic acid 600 ppm, 50 min after reaction initiation): 0.506 | turbidity (630 nm) ([3]; ferulic acid 600 ppm, 60 min after reaction initiation): 0.477 | turbidity (630 nm) ([3]; ferulic acid 600 ppm, 90 min after reaction initiation): 0.447 | turbidity (630 nm) ([3]; ferulic acid 600 ppm, 120 min after reaction initiation): 0.379 | turbidity (630 nm) ([3]; ferulic acid 600 ppm, 180 min after reaction initiation): 0.246 | germination induction versus concentration ([3]; ferulic acid of 10 to 600 ppm): germination was inducted at any concentration to the same extent
